Like-named read-outs stand apart in the source and are kept apart here.
How the values were obtained:
HIV-1LAI = test: Cell infectivity assay (HIV-1LAI infection of CEM-T4 cells, p24 readout); assay type: cell-based; conditions: for IC50: Human immunodeficiency virus 1, CEM-T4 cells infected with HIV-1LAI, read-out: HIV PI IC50 (nM) (Cell Infectivity Assay); for loss in potency between cell free assay experiments and cell infectivity assay experiments: comparison of cell free and cell infectivity IC50
Method: Procedure—cell infectivity assay. The T-cell-tropic strain HIV-1LAI was used to infect CEM-T4 cells over a dose range of the protease inhibitor compounds. CEM-T4 cells were grown in RPMI 1640 medium supplemented with 10% heat-inactivated fetal bovine serum, penicillin (100 units/mL), streptomycin (100 ug/mL), and polybrene (2 ug/mL) at 37° C. with 5% CO2. The PI dose range covered a total of nine 3:1 dilutions from 5000 nM to less than 1 nM. The tittered virus was added to wells of CEM cells (pre-treated with protease inhibitor [PI] dilution series for 1 h) at a low multiplicity of infection (MOI=0.01) and incubated for 4 h at 37° C. The cells then were washed three times with PBS (GIBCO/BRL), resuspended in triplicate wells each with 1 ml of culture medium containing the same concentration of PI as the initial pre-incubation and further incubated at 37° C. in 5% CO2. Each well of the 24-well plate contains 1×10̂5 cells upon incubation initiation. The cells were fed every two days with fresh PI at the appropriate concentration. Samples were scored for cytopathic effect on day 4, and if consistent CPE was seen throughout the various wells, the supernatants was collected for p24 assay. Otherwise, the cultures were maintained with feeding every other day until day 8, at which point the p24 were initiated.

HIV-1 Protease = target: T1, HIV-1 Protease (Human immunodeficiency virus type 1 group M subtype B, UniProt P04585); test: Cell free assay (SensoLyte 490 HIV-1 Protease Assay Kit); assay type: biochemical
T1 construct: SensoLyte™ 490 HIV-1 Protease Assay Kit
Method: Procedure—cell free assay. The cell free assays were conducted according to the test kit protocol provided with the SensoLyte™ 490 HIV-1 Protease Assay Kit, available from AnaSpec (San Jose, Calif.).

[1] = Table 2 Activity Data, read-out: HIV PI IC50 (nM) (Cell-Free Assay)

## CC(C)CN(C[C@@H](O)[C@H](Cc1ccccc1)NC(=O)O[C@H]1CCOC1)S(=O)(=O)c1ccc(N)cc1 [Amprenavir, amprenavir, reference compound]
HIV-1LAI
  IC50: 171 nM
  loss in potency between cell free assay experiments and cell infectivity assay experiments: significant loss of potency

## CCC(C)(C)C(=O)C(=O)N1CCCCC1C(=O)OC(CCc1ccc(OC)c(OC)c1)c1cccc(OCC(=O)NCCCOC(=O)NC(Cc2ccccc2)C(O)CN(CC(C)C)S(=O)(=O)c2ccc([N+](=O)[O-])cc2)c1 (stereo not drawn) [Compound A1]
HIV-1 Protease; [1]
  IC50: 24 nM

## CCC(C)(C)C(=O)C(=O)N1CCCCC1C(=O)OC(CCc1ccc(OC)c(OC)c1)c1cccc(OCC(=O)NCCCOC(=O)NC(Cc2ccccc2)C(O)CN(CC(C)C)S(=O)(=O)c2ccc(N)cc2)c1 (stereo not drawn) [Compound A2]
HIV-1 Protease; [1]
  IC50: 7.3 nM

## CCC(C)(C)C(=O)C(=O)N1CCCCC1C(=O)OC(CCc1ccc(OC)c(OC)c1)c1cccc(OCCNC(=O)CCCOC(=O)NC(Cc2ccccc2)C(O)CN(CC(C)C)S(=O)(=O)c2ccc([N+](=O)[O-])cc2)c1 (stereo not drawn) [Compound A3]
HIV-1 Protease; [1]
  IC50: 11.5 nM

## CCC(C)(C)C(=O)C(=O)N1CCCCC1C(=O)OC(CCc1ccc(OC)c(OC)c1)c1cccc(OCC(=O)NCCCOC(=O)NC(Cc2ccccc2)C(O)CN(CC(C)C)S(=O)(=O)c2ccc(OC)cc2)c1 (stereo not drawn) [Compound A4]
HIV-1 Protease; [1]
  IC50: 8.4 nM

## CCC(C)(C)C(=O)C(=O)N1CCCCC1C(=O)OC(CCc1ccc(OC)c(OC)c1)c1cccc(OCC(=O)NC(C(=O)NC(Cc2ccccc2)C(O)CN(CC(C)C)S(=O)(=O)c2ccc(N)cc2)C(C)C)c1 (stereo not drawn) [Compound A5]
HIV-1LAI
  IC50: 3.3 nM
  loss in potency between cell free assay experiments and cell infectivity assay experiments: little or no loss in potency
HIV-1 Protease
  IC50: 7.9 nM

## CCC(C)(C)C(=O)C(=O)N1CCCCC1C(=O)OC(CCc1ccc(OC)c(OC)c1)c1cccc(OCCNC(=O)CCCOC(=O)NC(Cc2ccccc2)C(O)CN(CC(C)C)S(=O)(=O)c2ccc(N)cc2)c1 (stereo not drawn) [Compound A6]
HIV-1 Protease; [1]
  IC50: 5.6 nM

## CCC(C)(C)C(=O)C(=O)N1CCCCC1C(=O)OC(CCc1ccc(OC)c(OC)c1)c1cccc(OCC(=O)NC(CC(N)=O)C(=O)NC(Cc2ccccc2)C(CN(CC(C)C)S(=O)(=O)c2ccc(N)cc2)OC)c1 (stereo not drawn) [Compound A7]
HIV-1LAI
  IC50: 14 nM
  loss in potency between cell free assay experiments and cell infectivity assay experiments: little or no loss in potency
HIV-1 Protease
  IC50: 6.6 nM

## CCC(C)(C)C(=O)C(=O)N1CCCC[C@H]1C(=O)O[C@H](CCc1ccc(OC)c(OC)c1)c1cccc(NC(=O)CCC(=O)N[C@@H](Cc2ccccc2)[C@H](O)CC(CC(C)C)S(=O)(=O)c2ccc([N+](=O)[O-])cc2)c1 (stereo partly drawn) [Compound A8]
HIV-1 Protease; assay not named, follows the cell free data of Table 2, read-out: IC50 value
  IC50: 339 nM

## CCC(C)(C)C(=O)C(=O)N1CCCCC1C(=O)OC(CCc1ccc(OC)c(OC)c1)c1cccc(OCCNC(=O)NC(CC(N)=O)C(=O)NC(Cc2ccccc2)C(CN(CC(C)C)S(=O)(=O)c2ccc(N)cc2)OC)c1 (stereo not drawn) [Compound A9]
HIV-1LAI
  IC50: 2.3 nM
  loss in potency between cell free assay experiments and cell infectivity assay experiments: little or no loss in potency
HIV-1 Protease
  IC50: 1.8 nM

## CCC(C)(C)C(=O)C(=O)N1CCCCC1C(=O)OC(CCc1ccc(OC)c(OC)c1)c1cccc(OCCNC(=O)NC(C(=O)NC(Cc2ccccc2)C(O)CN(CC(C)C)S(=O)(=O)c2ccc(N)cc2)C(C)C)c1 (stereo not drawn) [Compound A10]
HIV-1LAI
  IC50: 48.1 nM
HIV-1 Protease
  IC50: 3.9 nM

## CCC(C)(C)C(=O)C(=O)N1CCCCC1C(=O)OC(CCc1ccc(OC)c(OC)c1)c1cccc(OCCNC(=O)COCC2OCCC2OC(=O)NC(Cc2ccccc2)C(O)CN(CC(C)C)S(=O)(=O)c2ccc(N)cc2)c1 (stereo not drawn) [Compound A13]
HIV-1 Protease; [1]
  IC50: 51 nM

## CCC(C)(C)C(=O)C(=O)N1CCCCC1C(=O)OC(CCc1ccc(OC)c(OC)c1)c1cccc(OCC(=O)NC(CC(N)=O)C(=O)NC(Cc2ccccc2)C(O)CN(CC(C)C)S(=O)(=O)c2ccc(N)cc2)c1 (stereo not drawn) [Compound A14]
HIV-1 Protease; [1]
  IC50: 3.5 nM

## Cc1cccc(C)c1OCC(=O)N[C@@H](Cc1ccccc1)[C@@H](O)C[C@H](Cc1ccccc1)NC(=O)[C@H](C(C)C)N1CCCNC1=O [Lopinavir, lopinavir, reference compound]
HIV-1LAI
  IC50: 18.9 nM
  loss in potency between cell free assay experiments and cell infectivity assay experiments: significant loss of potency
HIV-1 Protease; Table 1 Activity data, read-out: HIV PI IC50 (nM) (Cell free assay)
  IC50: 0.9 nM

— patent publication US20120041019A1, “PROTEASE INHIBITORS” (priority 2008, published 2012)
